Earlier results, collected in PMC7587396, “New Zileuton-Hydroxycinnamic Acid Hybrids: Synthesis and Structure-Activity Relationship towards 5-Lipoxygenase Inhibition” (Molecules, 2020).

Target: T1, 5-LO (Homo sapiens, UniProt P09917)
T1 sequence (P09917 1-674): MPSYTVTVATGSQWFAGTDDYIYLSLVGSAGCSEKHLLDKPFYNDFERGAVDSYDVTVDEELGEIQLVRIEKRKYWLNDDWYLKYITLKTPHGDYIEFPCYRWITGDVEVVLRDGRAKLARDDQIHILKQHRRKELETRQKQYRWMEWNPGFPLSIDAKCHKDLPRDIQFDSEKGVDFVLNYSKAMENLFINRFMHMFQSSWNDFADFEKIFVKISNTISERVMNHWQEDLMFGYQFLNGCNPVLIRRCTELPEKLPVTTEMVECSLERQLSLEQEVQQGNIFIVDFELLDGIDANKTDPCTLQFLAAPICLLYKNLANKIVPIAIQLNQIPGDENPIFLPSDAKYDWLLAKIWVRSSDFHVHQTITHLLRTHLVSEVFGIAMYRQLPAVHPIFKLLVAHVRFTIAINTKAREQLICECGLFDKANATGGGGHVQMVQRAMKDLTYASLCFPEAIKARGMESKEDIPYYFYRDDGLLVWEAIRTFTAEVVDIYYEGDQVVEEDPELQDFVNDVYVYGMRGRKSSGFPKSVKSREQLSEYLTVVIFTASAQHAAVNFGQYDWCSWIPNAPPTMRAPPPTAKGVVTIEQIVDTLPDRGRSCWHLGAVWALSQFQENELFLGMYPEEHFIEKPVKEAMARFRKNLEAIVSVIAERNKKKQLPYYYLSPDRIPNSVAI
Set-up: 5-LO is highly expressed in PMNL; endogenous in cells; host or cells: human PMNL from peripheral blood of healthy volunteers
Conditions: read-out: IC50, inhibition of LTs biosynthesis in human PMNL; cited from earlier work

O=C(/C=C/c1ccc(O)c(O)c1)OCCc1ccccc1 [CAPE, caffeic acid phenethyl ester]
IC50: 520 nM
